Laboratory results reported in US20100267561A1, “HERBICIDAL PYRIDAZINONE DERIVATIVES” (priority 2007, published 2010).

Assays:
Assay in all cases: Test B pre-/postemergence plant response
Format in all cases: in vivo
[1] = tested on: large crabgrass (Digitaria sanguinalis)
How it was run: (§1)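 Visual scoring from 0 (no effect) to 100 (complete control) against untreated controls was done 13 to 15 days after greenhouse treatment. Chemicals were formulated in a surfactant-containing non-phytotoxic solvent and applied to soil preemergence or to 1- to 4-leaf (2-18 cm) plants postemergence.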

[2] = tested on: velvetleaf (Abutilon theophrasti)
How it was run: as §1

[3] = tested on: pigweed (Amaranthus retroflexus)
How it was run: as §1

[4] = tested on: downy bromegrass (Bromus tectorum)
How it was run: as §1

[5] = tested on: catchweed bedstraw (Galium aparine); settings: Preemergence
How it was run: as §1

[6] = tested on: goosegrass (Eleusine indica)
How it was run: as §1

[7] = tested on: cocklebur (Xanthium strumarium)
How it was run: as §1

[8] = tested on: woolly cupgrass (Eriochloa villosa)
How it was run: as §1

[9] = tested on: green foxtail (Setaria viridis)
How it was run: as §1

[10] = tested on: Russian thistle (Salsola iberica); settings: Preemergence
How it was run: as §1

soybean (Glycine max) = tested on: soybean (Glycine max)
How it was run: as §1

[11] = tested on: common (oilseed) sunflower (Helianthus annuus); settings: Preemergence
How it was run: as §1

[12] = tested on: wheat (Triticum aestivum)
How it was run: as §1

[13] = 8 g ai/ha, postemergence, 0-100 scale
[14] = 16 g ai/ha, postemergence, 0-100 scale
[15] = Postemergence, 31 g ai/ha, scale 0 to 100
[16] = Postemergence, 62 g ai/ha, scale 0 to 100, 0 no effect, 100 complete control
[17] = Preemergence, 8 g ai/ha, scale 0 to 100 (0 no effect, 100 complete control)
[18] = Preemergence, 31 g ai/ha, scale 0 to 100 (0 no effect, 100 complete control)
[19] = Preemergence, 62 g ai/ha, 0 to 100 scale, 0 no effect, 100 complete control
[20] = Preemergence, 16 g ai/ha, scale 0 to 100
[21] = 31 g ai/ha, scale 0 to 100 (0 no effect, 100 complete control)
[22] = 62 g ai/ha, 0 to 100 scale, 0 no effect, 100 complete control
[23] = 8 g ai/ha, scale 0 to 100 (0 no effect, 100 complete control)

COc1nn(C)c(=O)c(-n2nc(-c3ccc(Br)cc3)cc2C)c1O [Compound 82]
Crabgrass, Large plant response rating [1, 13]: 100
Crabgrass, Large plant response rating [1, 14]: 100
Plant response rating, Crabgrass, Large [1, 15]: 100
Plant response rating, Crabgrass, Large [1, 16]: 100
Crabgrass, Large plant response rating [1, 17]: 95
Plant response rating, Crabgrass, Large [1, 18]: 100
Plant response rating, Crabgrass, Large [1, 19]: 100
Crabgrass, Large plant response rating [1, 20]: 98
Velvetleaf plant response rating [2, 13]: 0
Velvetleaf plant response rating [2, 14]: 0
Plant response rating, Velvetleaf [2, 15]: 0
Plant response rating, Velvetleaf [2, 16]: 55
Velvetleaf plant response rating [2, 17]: 0
Plant response rating, Velvetleaf [2, 18]: 45
Plant response rating, Velvetleaf [2, 19]: 75
Velvetleaf plant response rating [2, 20]: 0
Pigweed plant response rating [3, 13]: 0
Pigweed plant response rating [3, 14]: 0
Plant response rating, Pigweed [3, 15]: 0
Plant response rating, Pigweed [3, 16]: 0
Pigweed plant response rating [3, 17]: 0
Plant response rating, Pigweed [3, 18]: 0
Plant response rating, Pigweed [3, 19]: 0
Bromegrass, Downy plant response rating [4, 13]: 85
Bromegrass, Downy plant response rating [4, 14]: 95
Plant response rating, Bromegrass, Downy [4, 15]: 100
Plant response rating, Bromegrass, Downy [4, 16]: 100
Bromegrass, Downy plant response rating [4, 17]: 30
Plant response rating, Bromegrass, Downy [4, 18]: 98
Plant response rating, Bromegrass, Downy [4, 19]: 100
Bromegrass, Downy plant response rating [4, 20]: 50
Plant response rating, Galium [5, 21]: 50
Plant response rating, Galium [5, 22]: 50
Goosegrass plant response rating [6, 13]: 60
Goosegrass plant response rating [6, 14]: 65
Plant response rating, Goosegrass [6, 15]: 85
Plant response rating, Goosegrass [6, 16]: 90
Goosegrass plant response rating [6, 17]: 95
Plant response rating, Goosegrass [6, 18]: 98
Plant response rating, Goosegrass [6, 19]: 100
Goosegrass plant response rating [6, 20]: 98
Cocklebur plant response rating [7, 13]: 0
Cocklebur plant response rating [7, 14]: 0
Plant response rating, Cocklebur [7, 15]: 0
Plant response rating, Cocklebur [7, 16]: 20
Cocklebur plant response rating [7, 17]: 0
Plant response rating, Cocklebur [7, 18]: 0
Plant response rating, Cocklebur [7, 19]: 35
Cocklebur plant response rating [7, 20]: 0
Cupgrass, Woolly plant response rating [8, 13]: 85
Cupgrass, Woolly plant response rating [8, 14]: 90
Plant response rating, Cupgrass, Woolly [8, 15]: 95
Plant response rating, Cupgrass, Woolly [8, 16]: 100
Cupgrass, Woolly plant response rating [8, 17]: 45
Plant response rating, Cupgrass, Woolly [8, 18]: 98
Plant response rating, Cupgrass, Woolly [8, 19]: 100
Cupgrass, Woolly plant response rating [8, 20]: 80
Foxtail, Green plant response rating [9, 13]: 85
Foxtail, Green plant response rating [9, 14]: 100
Plant response rating, Foxtail, Green [9, 15]: 100
Plant response rating, Foxtail, Green [9, 16]: 100
Foxtail, Green plant response rating [9, 17]: 70
Plant response rating, Foxtail, Green [9, 18]: 100
Plant response rating, Foxtail, Green [9, 19]: 100
Foxtail, Green plant response rating [9, 20]: 100
Russian Thistle plant response rating [10, 23]: 0
Plant response rating, Russian Thistle [10, 21]: 0
Plant response rating, Russian Thistle [10, 22]: 0
Russian Thistle plant response rating ([10]; 16 g ai/ha, scale 0 to 100): 0
Soybean plant response rating (soybean (Glycine max); [13]): 0
Soybean plant response rating (soybean (Glycine max); [14]): 45
Plant response rating, Soybean (soybean (Glycine max); [15]): 55
Plant response rating, Soybean (soybean (Glycine max); [16]): 70
Soybean plant response rating (soybean (Glycine max); [17]): 0
Plant response rating, Soybean (soybean (Glycine max); [18]): 20
Plant response rating, Soybean (soybean (Glycine max); [19]): 100
Soybean plant response rating (soybean (Glycine max); [20]): 0
Sunflower plant response rating [11, 23]: 0
Plant response rating, Sunflower [11, 21]: 70
Plant response rating, Sunflower [11, 22]: 85
Sunflower plant response rating ([11]; 16 g ai/ha, scale 0 to 100): 60
Wheat plant response rating [12, 13]: 85
Wheat plant response rating [12, 14]: 98
Plant response rating, Wheat [12, 15]: 100
Plant response rating, Wheat [12, 16]: 100
Wheat plant response rating [12, 17]: 0
Plant response rating, Wheat [12, 18]: 98
Plant response rating, Wheat [12, 19]: 100
Wheat plant response rating [12, 20]: 65
